Experiment [1] relates to Mycobacterium tuberculosis. The experiment can be described thus: Antimycobacterial against GFP-transfected Mycobacterium tuberculosis H37Rv assessed as reduction in GFP protein expression and measured every 2 days for 12 days. The format is functional.
The nature of experiment [2]: Inhibition of ATP-synthase (unknown origin). Further details: species or system Homo sapiens.
The nature of experiment [3]: Inhibition of Mycobacterium phlei DSM-43239 C-terminal ATP-synthase assessed as reduction in luciferase activity incubated for 10 mins in presence of ATP by luminometric method. Further details: species or system Mycolicibacterium phlei DSM 43239 = CCUG 21000.

≈ marks a conversion by molar mass, not a printed value. Some results are limits rather than exact numbers.

As to `COc1ccc(S(=O)(=O)N2CCCCCC2)cc1NC(=O)Cc1nnc(O)c2ccccc12`, the MIC in experiment [1] worked out at 250 µM (≈ 118 µg/mL). Take `COc1nc2ccc(Br)cc2cc1[C@@H](c1ccccc1)[C@@](O)(CCN(C)C)c1cccc2ccccc12` [BEDAQUILINE]: the IC50 is over 200000 nM in experiment [2] and 20 to 25 nM in experiment [3].

For the origin of these results see ChEMBL document CHEMBL4376832, “Changing the Rules of TB-Drug Discovery” (J Med Chem, 2019).
